Measurements published in patent publication US10259779B2 (WAYNE STATE UNIVERSITY, priority 2016, dated 2019).
Each block holds one compound with its values, some of them ahead of it.

What was measured:
[1] = test system: acetyl-α-tubulin (HDAC6 substrate) in U937 cells; test: In cellulo selectivity testing, western blot of acetyl-α-tubulin; type: cell-based; details: 18 hours, SAHA 5 μM, 1f 20-60 μM, compared to DMSO control
[2] = test system: acetyl-histone H3 (HDAC1, 2, 3 substrate) in U937 cells; test: In cellulo selectivity testing, western blot of acetyl-histone H3; type: cell-based; details: 18 hours, SAHA 5 μM
HDAC1 [3] = target: T1, HDAC1 (Homo sapiens, UniProt Q13547); details: single concentration 1 μM; cited from earlier work
T1 sequence (Q13547 whole entry): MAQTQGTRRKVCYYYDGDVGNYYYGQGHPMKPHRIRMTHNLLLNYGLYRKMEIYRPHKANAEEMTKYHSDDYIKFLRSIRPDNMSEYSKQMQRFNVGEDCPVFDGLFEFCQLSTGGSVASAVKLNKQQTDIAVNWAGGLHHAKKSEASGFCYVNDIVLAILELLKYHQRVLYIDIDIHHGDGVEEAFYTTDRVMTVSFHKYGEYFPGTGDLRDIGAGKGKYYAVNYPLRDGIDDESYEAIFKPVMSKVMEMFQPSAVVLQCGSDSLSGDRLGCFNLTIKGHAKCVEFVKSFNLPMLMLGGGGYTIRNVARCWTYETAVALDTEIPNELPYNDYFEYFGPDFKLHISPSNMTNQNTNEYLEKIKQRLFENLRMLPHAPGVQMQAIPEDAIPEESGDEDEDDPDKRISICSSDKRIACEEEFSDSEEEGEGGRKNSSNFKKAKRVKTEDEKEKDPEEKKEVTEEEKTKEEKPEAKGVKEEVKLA

HDAC6 [4] = target: T2, HDAC6 (Homo sapiens, UniProt Q9UBN7); details: single concentration 1 μM; cited from earlier work
T2 sequence (Q9UBN7 1-1215): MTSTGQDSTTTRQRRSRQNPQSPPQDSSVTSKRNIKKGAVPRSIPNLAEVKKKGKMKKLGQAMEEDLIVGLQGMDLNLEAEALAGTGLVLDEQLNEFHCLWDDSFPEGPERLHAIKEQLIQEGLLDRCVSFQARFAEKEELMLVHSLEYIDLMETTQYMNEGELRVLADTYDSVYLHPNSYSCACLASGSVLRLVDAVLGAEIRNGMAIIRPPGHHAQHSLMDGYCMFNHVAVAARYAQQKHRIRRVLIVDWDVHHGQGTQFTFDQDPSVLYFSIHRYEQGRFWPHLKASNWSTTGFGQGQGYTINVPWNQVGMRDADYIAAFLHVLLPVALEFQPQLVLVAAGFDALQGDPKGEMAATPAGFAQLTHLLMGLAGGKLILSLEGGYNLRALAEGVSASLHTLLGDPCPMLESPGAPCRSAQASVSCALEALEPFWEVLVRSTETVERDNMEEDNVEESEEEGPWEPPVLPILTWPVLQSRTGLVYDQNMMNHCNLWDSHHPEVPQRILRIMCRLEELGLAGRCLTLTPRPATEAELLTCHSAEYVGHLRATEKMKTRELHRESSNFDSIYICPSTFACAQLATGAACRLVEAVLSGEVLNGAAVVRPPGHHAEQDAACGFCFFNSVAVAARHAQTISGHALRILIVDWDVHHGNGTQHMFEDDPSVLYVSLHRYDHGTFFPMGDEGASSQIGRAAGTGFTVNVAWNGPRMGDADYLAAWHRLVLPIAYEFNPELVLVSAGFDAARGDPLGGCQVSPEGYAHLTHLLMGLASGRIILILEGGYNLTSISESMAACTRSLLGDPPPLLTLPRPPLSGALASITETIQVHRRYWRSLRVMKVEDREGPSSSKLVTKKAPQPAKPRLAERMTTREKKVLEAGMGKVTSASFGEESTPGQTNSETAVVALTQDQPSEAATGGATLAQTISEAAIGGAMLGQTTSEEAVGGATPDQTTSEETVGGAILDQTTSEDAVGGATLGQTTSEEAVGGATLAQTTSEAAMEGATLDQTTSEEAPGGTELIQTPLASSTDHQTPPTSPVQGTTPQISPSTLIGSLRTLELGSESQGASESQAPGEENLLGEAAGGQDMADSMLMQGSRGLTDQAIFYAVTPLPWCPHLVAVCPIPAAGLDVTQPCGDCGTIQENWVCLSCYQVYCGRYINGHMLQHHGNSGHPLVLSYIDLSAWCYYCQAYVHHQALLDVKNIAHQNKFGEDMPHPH

in vitro = details: human, Jurkat cells (leukemia cell line)
HDAC6 [5] = target: T2, HDAC6; details: literature ref 55; cited from earlier work
[6] = test system: HDAC proteins in HeLa cell lysates; test: Global HDAC inhibition with HeLa cell lysates (HDAC-Glo I/II substrate); type: biochemical; details: Hela Lysate
Protocol: HDAC activity was measured using the commercially available HDAC-Glo™ I/II substrate (Promega).
Lysates were prepared according to the reported procedure.^28 HeLa-S3 cells (purchased from Biovest) were lysed in lysis buffer (1×10^9 cells in 10 mL lysis buffer; 50 mM Tris-HCl, pH 8.0, 10% glycerol, 150 mM NaCl, 0.5% Triton X-100, and 1× protease inhibitor cocktail (GenDEPOT)) with rotation at 4° C. for 30 min. Cell debris was removed by centrifugation at 12000 rpm at 4° C. for 30 min. Protein concentration of the supernatant was determined using Bio-Rad protein assay (BioRad, Bradford reagent). Lysates were stored at −80° C.
To measure global HDAC inhibition, HeLa cell lysates (1 μg total protein) were mixed with HDAC-Glo™ buffer in polystyrene 96-well half area white plate (Corning) to a final volume of 12 μL, followed by addition of inhibitors in DMSO (0.5 μL) and incubation for 15 min at room temperature without rocking. An uninhibited control reaction was also included that contained DMSO (0.5 μL). Finally, deacetylase activity was measured using the HDAC-Glo™ assay kit (Promega) as per the manufacturer's protocol. Specifically, the HDAC-Glo™ substrate (1 mL) and developer ([…]) were first premixed to form the HDAC-Glo™ reagents. Then, to monitor deacetylase activity, HDAC-Glo™ reagent (5 μL) and HDAC-Glo™ buffer (7.5 μL) were added to each well (25 μL total volume) and incubated for 35 min at room temperature without rocking. The deacetylase activity was measured as luminescent signal using a GeniosPlus Fluorimeter (Tecan) at optimal gain. The concentrations of inhibitors reported in the dose-dependent studies (Table 2) are final concentrations after addition of HDAC-Glo™ reagent HDAC-Glo™ buffer.

recombinant HDAC8 = target: T3, recombinant HDAC8 (Homo sapiens, UniProt Q9BY41); test: Recombinant HDAC8 inhibition (HDAC-Glo); type: biochemical; details: read-out: Deacetylase activity (%) HDAC8
T3 construct: purchased BPS Bioscience
T3 sequence (Q9BY41 1-377): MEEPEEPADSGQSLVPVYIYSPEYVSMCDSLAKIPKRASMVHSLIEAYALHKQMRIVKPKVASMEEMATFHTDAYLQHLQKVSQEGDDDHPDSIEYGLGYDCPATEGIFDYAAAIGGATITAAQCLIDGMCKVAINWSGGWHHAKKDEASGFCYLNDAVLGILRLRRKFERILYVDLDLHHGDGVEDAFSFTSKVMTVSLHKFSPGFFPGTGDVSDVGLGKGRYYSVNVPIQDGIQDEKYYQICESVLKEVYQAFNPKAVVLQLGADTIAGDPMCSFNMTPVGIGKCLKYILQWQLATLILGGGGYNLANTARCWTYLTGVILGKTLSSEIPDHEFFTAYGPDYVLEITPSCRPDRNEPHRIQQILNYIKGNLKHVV
Protocol: Inhibitory activity with HDAC8 was measured using the following procedure. In a half area 96-well white opaque plate, recombinant HDAC8 (75 ng, BPS Bioscience) was incubated in HDAC-Glo™ buffer (39 μL) with inhibitor in DMSO (1 μL), or DMSO alone (1 μL) as a control, for 15 minutes at room temperature. HDAC-Glo™ reagent (10 μL) was added to each reaction and incubated for 30 min at room temperature. Luminescent signal was measured 30 minutes after adding the substrate reagent using a Geniosplus Fluorimeter (Tecan) at optimal gain. To determine IC50, the luminescent signal was first background corrected with the signal from a background control reaction where no HDAC8 enzyme was added.

U937 cells = test: In vitro cell growth inhibition, MTT assay, U937; type: cell-based; details: U937 cell line
HDAC1 [7] = target: T1, HDAC1; test: ELISA-based HDAC activity assay, HDAC1; details: read-out: Deacetylase activity (%) HDAC1
HDAC2 = HDAC2 (Homo sapiens, UniProt Q92769); test: ELISA-based HDAC activity assay, HDAC2; details: read-out: Deacetylase activity (%) HDAC2
HDAC2, sequence (Q92769 whole entry): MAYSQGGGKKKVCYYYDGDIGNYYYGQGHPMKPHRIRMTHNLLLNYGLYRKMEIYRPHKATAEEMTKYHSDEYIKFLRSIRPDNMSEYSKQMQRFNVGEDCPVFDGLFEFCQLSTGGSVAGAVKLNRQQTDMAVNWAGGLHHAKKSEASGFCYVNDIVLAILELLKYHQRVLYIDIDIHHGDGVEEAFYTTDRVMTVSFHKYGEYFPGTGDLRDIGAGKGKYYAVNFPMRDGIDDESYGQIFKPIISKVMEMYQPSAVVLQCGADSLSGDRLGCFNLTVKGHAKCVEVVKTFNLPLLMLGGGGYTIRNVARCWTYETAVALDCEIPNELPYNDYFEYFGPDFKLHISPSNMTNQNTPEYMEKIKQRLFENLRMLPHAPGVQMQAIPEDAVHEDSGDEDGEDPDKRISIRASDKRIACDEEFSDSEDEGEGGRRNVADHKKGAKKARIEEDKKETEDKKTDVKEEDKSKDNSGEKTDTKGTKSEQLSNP

HDAC3 = HDAC3 (Homo sapiens, UniProt O15379); test: ELISA-based HDAC activity assay, HDAC3; details: read-out: Deacetylase activity (%) HDAC3
HDAC3, sequence (O15379 whole entry): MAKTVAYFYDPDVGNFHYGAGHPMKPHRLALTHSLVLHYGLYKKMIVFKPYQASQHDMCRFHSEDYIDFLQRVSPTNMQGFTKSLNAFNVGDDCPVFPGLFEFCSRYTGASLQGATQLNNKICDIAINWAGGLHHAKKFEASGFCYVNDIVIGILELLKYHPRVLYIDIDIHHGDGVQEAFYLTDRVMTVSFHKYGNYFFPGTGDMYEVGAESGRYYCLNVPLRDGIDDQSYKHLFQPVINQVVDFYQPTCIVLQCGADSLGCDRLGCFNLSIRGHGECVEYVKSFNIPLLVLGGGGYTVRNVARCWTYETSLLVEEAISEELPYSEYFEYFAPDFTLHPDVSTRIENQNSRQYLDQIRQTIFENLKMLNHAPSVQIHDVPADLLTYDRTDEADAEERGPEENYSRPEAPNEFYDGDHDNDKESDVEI
HDAC3, sequence (Q9Y618 whole entry partner): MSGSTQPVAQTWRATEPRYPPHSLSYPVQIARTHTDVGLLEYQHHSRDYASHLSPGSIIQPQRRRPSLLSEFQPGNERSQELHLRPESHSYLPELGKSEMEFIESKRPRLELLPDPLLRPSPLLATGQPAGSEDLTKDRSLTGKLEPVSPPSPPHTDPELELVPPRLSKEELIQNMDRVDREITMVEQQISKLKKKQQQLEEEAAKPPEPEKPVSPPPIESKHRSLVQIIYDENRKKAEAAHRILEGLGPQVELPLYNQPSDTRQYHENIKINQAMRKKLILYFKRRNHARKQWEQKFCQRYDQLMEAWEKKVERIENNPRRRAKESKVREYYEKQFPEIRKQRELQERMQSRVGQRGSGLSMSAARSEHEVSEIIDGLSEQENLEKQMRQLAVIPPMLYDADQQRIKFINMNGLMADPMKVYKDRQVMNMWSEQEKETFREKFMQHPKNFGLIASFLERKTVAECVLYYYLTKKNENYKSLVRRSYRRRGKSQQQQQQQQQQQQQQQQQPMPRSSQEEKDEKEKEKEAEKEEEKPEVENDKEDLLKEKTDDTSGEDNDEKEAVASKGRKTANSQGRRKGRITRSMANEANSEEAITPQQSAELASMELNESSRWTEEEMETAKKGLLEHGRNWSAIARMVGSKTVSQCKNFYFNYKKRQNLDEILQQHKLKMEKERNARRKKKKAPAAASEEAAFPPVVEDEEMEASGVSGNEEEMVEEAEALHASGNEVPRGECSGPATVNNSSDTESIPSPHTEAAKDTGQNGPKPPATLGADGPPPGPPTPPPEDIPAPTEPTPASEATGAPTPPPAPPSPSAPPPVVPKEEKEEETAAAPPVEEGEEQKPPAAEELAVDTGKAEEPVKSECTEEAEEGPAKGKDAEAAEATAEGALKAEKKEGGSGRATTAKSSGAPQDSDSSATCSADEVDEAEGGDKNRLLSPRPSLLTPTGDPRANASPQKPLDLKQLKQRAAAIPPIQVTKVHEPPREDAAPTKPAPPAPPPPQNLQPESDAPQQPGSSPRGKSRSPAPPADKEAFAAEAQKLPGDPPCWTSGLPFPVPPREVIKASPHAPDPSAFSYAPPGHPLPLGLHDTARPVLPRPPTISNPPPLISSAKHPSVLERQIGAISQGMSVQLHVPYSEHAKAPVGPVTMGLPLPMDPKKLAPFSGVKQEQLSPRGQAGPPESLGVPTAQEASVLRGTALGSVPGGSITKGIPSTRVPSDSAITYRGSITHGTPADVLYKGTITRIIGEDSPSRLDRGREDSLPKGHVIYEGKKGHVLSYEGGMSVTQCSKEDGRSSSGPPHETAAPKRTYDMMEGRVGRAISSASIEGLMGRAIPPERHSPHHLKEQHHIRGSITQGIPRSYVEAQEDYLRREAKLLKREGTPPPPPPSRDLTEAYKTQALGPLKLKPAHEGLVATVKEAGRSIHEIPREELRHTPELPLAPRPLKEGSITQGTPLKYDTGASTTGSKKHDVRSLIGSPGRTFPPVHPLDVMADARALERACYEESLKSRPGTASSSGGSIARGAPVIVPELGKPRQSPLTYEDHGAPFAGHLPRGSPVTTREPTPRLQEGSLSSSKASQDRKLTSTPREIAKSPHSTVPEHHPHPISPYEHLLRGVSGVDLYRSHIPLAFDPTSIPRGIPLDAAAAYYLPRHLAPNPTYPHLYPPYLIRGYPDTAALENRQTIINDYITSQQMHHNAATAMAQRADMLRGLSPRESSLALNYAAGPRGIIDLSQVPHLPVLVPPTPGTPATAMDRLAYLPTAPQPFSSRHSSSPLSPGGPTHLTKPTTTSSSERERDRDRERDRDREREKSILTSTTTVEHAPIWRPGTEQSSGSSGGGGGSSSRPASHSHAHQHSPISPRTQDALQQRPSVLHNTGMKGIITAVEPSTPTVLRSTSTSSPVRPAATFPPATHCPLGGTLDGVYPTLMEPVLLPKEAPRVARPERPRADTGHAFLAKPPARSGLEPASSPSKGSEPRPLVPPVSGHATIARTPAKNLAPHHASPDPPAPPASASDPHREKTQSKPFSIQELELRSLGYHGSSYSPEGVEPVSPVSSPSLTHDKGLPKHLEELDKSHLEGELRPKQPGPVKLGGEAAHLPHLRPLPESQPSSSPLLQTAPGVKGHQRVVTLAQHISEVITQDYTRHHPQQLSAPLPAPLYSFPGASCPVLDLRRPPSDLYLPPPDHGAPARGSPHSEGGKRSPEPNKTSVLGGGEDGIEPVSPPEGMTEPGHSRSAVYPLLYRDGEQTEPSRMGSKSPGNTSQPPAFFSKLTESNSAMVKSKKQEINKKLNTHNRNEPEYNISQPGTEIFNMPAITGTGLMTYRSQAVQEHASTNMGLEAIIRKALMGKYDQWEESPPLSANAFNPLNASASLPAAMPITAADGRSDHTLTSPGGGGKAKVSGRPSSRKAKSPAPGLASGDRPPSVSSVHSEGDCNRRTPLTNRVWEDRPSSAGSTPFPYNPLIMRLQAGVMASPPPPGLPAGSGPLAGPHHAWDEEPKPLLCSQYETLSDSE

HDAC6 [8] = target: T2, HDAC6; test: ELISA-based HDAC activity assay, HDAC6; details: read-out: Deacetylase activity (%) HDAC6

SMILES: O=C(CCCCCCC(=O)Nc1ccccc1)NO [SAHA, suberoylamide hydroxamic acid]
levels of acetyl-α-tubulin (AcTub), western blot [1]: increases levels
levels of acetyl-histone H3 (AcH3), western blot [2]: increases levels
Deacetylase activity (%) HDAC1 (HDAC1 [3]): 8.9 ± 0.1%
Deacetylase activity (%) HDAC6 (HDAC6 [4]): 7.9 ± 1.6%
viability at 44 h, 10 µM (in vitro): 5 ± 3%

SMILES: CCCC(CCC)C(=O)NO [Valpropylhydroxamic acid]
fold selectivity for HDAC6 and 8 against HDAC1, 2, and 3 (reported) (HDAC6 [5]): 9-17 fold

activity at 0.1 µM (recombinant HDAC8; 1.0 × 10^−7 M): 41 ± 5%
activity at 0.0125 µM (recombinant HDAC8; 1.25 × 10^−8 M): 84 ± 1%
activity at 0.2 µM (recombinant HDAC8; 2.0 × 10^−7 M): 28 ± 4%
activity at […] (recombinant HDAC8; 2.5 × 10^−8 M): 74 ± 3%
activity at 0.05 µM (recombinant HDAC8; 5.0 × 10^−8 M): 61 ± 7%
EC50 (U937 cells): 34 µM
activity at 3.5 µM (HDAC1 [7]): 81 ± 1%
activity at 7 µM (HDAC1 [7]): 67 ± 2%
activity at 14 µM (HDAC1 [7]): 53 ± 3%
activity at 28 µM (HDAC1 [7]): 35 ± 1%
activity at 56 µM (HDAC1 [7]): 19 ± 1%
activity at 3.5 µM (HDAC2): 81 ± 5%
activity at 7 µM (HDAC2): 71 ± 2%
activity at 14 µM (HDAC2): 57 ± 1%
activity at 28 µM (HDAC2): 43 ± 2%
activity at 56 µM (HDAC2): 18 ± 10%
activity at […] (HDAC2): 87 ± 1%
activity at 3.5 µM (HDAC3): 79 ± 3%
activity at 7 µM (HDAC3): 79 ± 3%
activity at 14 µM (HDAC3): 64 ± 2%
activity at 28 µM (HDAC3): 48 ± 5%
activity at 56 µM (HDAC3): 25 ± 5%
activity at 0.05 µM (HDAC6 [8]): 61 ± 6%
activity at 0.1 µM (HDAC6 [8]): 46 ± 9%
activity at 0.2 µM (HDAC6 [8]): 39 ± 5%
activity at 0.4 µM (HDAC6 [8]): 23 ± 3%
activity at […] (HDAC6 [8]): 70 ± 6%
SMILES: CCCCC(CCCC(=O)Nc1ccccc1)CCC(=O)NO (racemic) [Compound 1c, 4-butyl-N^1-hydroxy-N^8-phenyloctanediamide]
Deacetylase activity (%) ([6]; 3.0 × 10^−5 M): 69 ± 2%
Deacetylase activity (%) ([6]; 6.0 × 10^−5 M): 44 ± 4%
Deacetylase activity (%) ([6]; […] 10^−4 M): 24 ± 1%
Deacetylase activity (%) ([6]; […] 10^−5 M): 88 ± 1%
Deacetylase activity (%) ([6]; […] 10^−6 M): 97 ± 2%
viability at 44 h, 1 µM (in vitro): 98 ± 6%
viability at 44 h, 10 µM (in vitro): 62 ± 16%
